Results: ChEMBL document CHEMBL3244272, “Folate antagonists. 15. 2,3-Diamino-6-(2-naphthylsulfonyl)quinazoline and related 2,4-diamino-6-[(phenyl and naphthyl)sulfinyl and sulfonyl]quinazolines, a potent new class of antimetabolites with phenomenal antimalarial activity” (J Med Chem, 1979)
The source made the active and inactive calls. No cut-off for these calls is given here.

What was measured:
[1] = tested on: Gallus gallus; test: Toxicity in trophozoite-induced Plasmodium gallinaceum infected in chick assessed as death at 40 mg/kg, sc single dose measured within 48 hrs; type: organism-based; parameters: dose 40 mg/kg, route subcutaneous; details: chicken, in vivo
[2] = tested on: Plasmodium gallinaceum; test: Antimalarial activity against trophozoite-induced Plasmodium gallinaceum infected in chick assessed as cured at 0.63 mg/kg, sc single dose; type: functional, organism-based; parameters: dose 0.63 mg/kg
[3] = tested on: Gallus gallus; test: Toxicity in trophozoite-induced Plasmodium gallinaceum infected in chick assessed as death at 10 mg/kg, sc single dose measured within 48 hrs; type: organism-based; parameters: dose 10 mg/kg, route subcutaneous; details: chicken, in vivo
[4] = tested on: Plasmodium gallinaceum; test: Antimalarial activity against trophozoite-induced Plasmodium gallinaceum infected in chick assessed as mean survival time at 1.25 mg/kg, sc single dose (reference value: 4 days); type: functional; details: route subcutaneous
[5] = tested on: Gallus gallus; test: Toxicity in trophozoite-induced Plasmodium gallinaceum infected in chick assessed as death at 1.25 mg/kg, sc single dose measured within 48 hrs; type: organism-based; parameters: dose 1.25 mg/kg, route subcutaneous; details: chicken, in vivo
[6] = tested on: Plasmodium gallinaceum; test: Antimalarial activity against trophozoite-induced Plasmodium gallinaceum infected in chick assessed as cured at 2.5 mg/kg, sc single dose; type: functional, organism-based; parameters: dose 2.5 mg/kg
[7] = tested on: Plasmodium gallinaceum; test: Antimalarial activity against trophozoite-induced Plasmodium gallinaceum infected in chick assessed as mean survival time at 2.5 mg/kg, sc single dose (reference value: 4 days); type: functional; details: route subcutaneous
[8] = tested on: Gallus gallus; test: Toxicity in trophozoite-induced Plasmodium gallinaceum infected in chick assessed as death at 0.63 mg/kg, sc single dose measured within 48 hrs; type: organism-based; parameters: dose 0.63 mg/kg, route subcutaneous; details: chicken, in vivo
[9] = tested on: Plasmodium gallinaceum; test: Antimalarial activity against trophozoite-induced Plasmodium gallinaceum infected in chick assessed as mean survival time at 5 mg/kg, sc single dose (reference value: 4 days); type: functional; details: route subcutaneous
[10] = tested on: Gallus gallus; test: Toxicity in trophozoite-induced Plasmodium gallinaceum infected in chick assessed as death at 2.5 mg/kg, sc single dose measured within 48 hrs; type: organism-based; parameters: dose 2.5 mg/kg, route subcutaneous; details: chicken, in vivo
[11] = tested on: Plasmodium berghei; test: Antimalarial activity against trophozoite-induced Plasmodium berghei infected in mouse assessed as change in mean survival time at 1.25 mg/kg, sc single dose after 72 hrs of infection; type: functional; details: route subcutaneous
[12] = tested on: Plasmodium berghei; test: Antimalarial activity against trophozoite-induced Plasmodium berghei infected in mouse assessed as change in mean survival time at 2.5 mg/kg, sc single dose after 72 hrs of infection; type: functional; details: route subcutaneous
[13] = tested on: Plasmodium gallinaceum; test: Antimalarial activity against trophozoite-induced Plasmodium gallinaceum infected in chick assessed as mean survival time at 0.63 mg/kg, sc single dose (reference value: 4 days); type: functional; details: route subcutaneous
[14] = tested on: Plasmodium gallinaceum; test: Antimalarial activity against trophozoite-induced Plasmodium gallinaceum infected in chick assessed as cured at 1.25 mg/kg, sc single dose; type: functional, organism-based; parameters: dose 1.25 mg/kg
[15] = tested on: Plasmodium gallinaceum; test: Antimalarial activity against trophozoite-induced Plasmodium gallinaceum infected in chick assessed as mean survival time at 10 mg/kg, sc single dose (reference value: 4 days); type: functional; details: route subcutaneous
[16] = tested on: Plasmodium berghei; test: Antimalarial activity against trophozoite-induced Plasmodium berghei infected in sc dosed mouse assessed as minimum curative dose; type: functional
[17] = tested on: Gallus gallus; test: Toxicity in trophozoite-induced Plasmodium gallinaceum infected in chick assessed as death at 160 mg/kg, sc single dose measured within 48 hrs; type: organism-based; parameters: dose 160 mg/kg, route subcutaneous; details: chicken, in vivo
[18] = tested on: Gallus gallus; test: Toxicity in trophozoite-induced Plasmodium gallinaceum infected in chick assessed as death at 80 mg/kg, sc single dose measured within 48 hrs; type: organism-based; parameters: dose 80 mg/kg, route subcutaneous; details: chicken, in vivo
[19] = tested on: Gallus gallus; test: Toxicity in trophozoite-induced Plasmodium gallinaceum infected in chick assessed as death at 5 mg/kg, sc single dose measured within 48 hrs; type: organism-based; parameters: dose 5 mg/kg, route subcutaneous; details: chicken, in vivo
[20] = tested on: Gallus gallus; test: Toxicity in trophozoite-induced Plasmodium gallinaceum infected in chick assessed as death at 320 mg/kg, sc single dose measured within 48 hrs; type: organism-based; parameters: dose 320 mg/kg, route subcutaneous; details: chicken, in vivo
[21] = tested on: Gallus gallus; test: Toxicity in trophozoite-induced Plasmodium gallinaceum infected in chick assessed as death at 20 mg/kg, sc single dose measured within 48 hrs; type: organism-based; parameters: dose 20 mg/kg, route subcutaneous; details: chicken, in vivo
[22] = tested on: Plasmodium falciparum; test: Antimalarial activity against chloroquine-sensitive, pyrimethamine-resistant Plasmodium falciparum Malayan Camp CH/Q infected in Aotus monkey assessed as dose required to >50% cures compound treated for 7 days; type: functional
[23] = tested on: Plasmodium falciparum; test: Antimalarial activity against chloroquine-resistant, pyrimethamine-sensitive Plasmodium falciparum Vietnam Oak Knoll in Aotus monkey assessed as dose required to >50% cures compound treated for 7 days; type: functional
[24] = tested on: Plasmodium gallinaceum; test: Antimalarial activity against cycloguanil-resistant Plasmodium gallinaceum infected in mouse assessed as dose required to suppress parasitemia by 90% compound treated through diet for 6 days relative to parent strain; type: functional

Nc1nc(N)c2cc(S(=O)(=O)c3ccc(Cl)cc3)ccc2n1
Activity [1]: Toxic | Activity [2]: Active | Activity [3]: Toxic | MST [4]: 7.4 days | Activity [5]: Toxic | Activity [6]: Active | MST [7]: 15 days | Activity [8]: Toxic | MST [9]: 16 days | Activity [10]: Toxic | MST [11]: 7.7 days | MST [12]: 12.2 days | MST [13]: 4 days | Activity [14]: Active | MST [15]: 20 days | MCD [16]: 40 mg/kg | Activity [17]: Toxic | Activity [18]: Toxic | Activity [19]: Toxic | Activity [20]: Toxic | Activity [21]: Toxic

Nc1nc(N)c2cc(Sc3ccc(Cl)cc3)ccc2n1
Activity [22]: 5 mg/kg | Activity [23]: 0.31 mg/kg | fold change (FC) [24]: 4
